From patent publication US8252781B2, “1,2-diazetidin-3-one derivatives and drugs containing same” (Kowa Company, Ltd., priority 2008, dated 2012)

Key:
Assay type in all cases: biochemical
human 11β-HSD1 = molecular target: T1, human 11β-HSD1 (Homo sapiens, UniProt P28845); assay: Enzyme inhibitory activity, human 11β-HSD1 (lysate of stably expressing HEK293 cells, cortisol by competitive ELISA); conditions: Table 1; human 11β-HSD1, cell lysate, 37° C. for 1 hour; read-out: h HSD1 in vitro assay (IC50 uM)
T1 construct: The obtained PCR products of about 0.9 kbp, 1.2 kbp, and 0.9 kbp were subcloned into an expression vector pcDNA3.1+/Zeo; expressed in transfected cells
Summary of the method: (§1)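 Sonicated lysates of stably transfected cells (diluted to 0.1–0.4 mg/mL before addition) reacted for 1 h at 37 °C in pH 7.4 Tris/sucrose/EGTA/EDTA/MgCl2 buffer with 100 nmol/L cortisone or cortisol and 400 μmol/L NADPH or NAD+, then were heat-stopped at 95 °C. Inhibition rate = 100 minus residual activity.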

human 11β-HSD2 = molecular target: T2, human 11β-HSD2 (Homo sapiens, UniProt P80365); assay: Enzyme inhibitory activity, human 11β-HSD2 (lysate of stably expressing HEK293 cells, cortisol by competitive ELISA); conditions: Table 1; human 11β-HSD2, cell lysate, 37° C. for 1 hour; read-out: h HSD2 in vitro assay (IC50 uM)
T2 construct: The obtained PCR products of about 0.9 kbp, 1.2 kbp, and 0.9 kbp were subcloned into an expression vector pcDNA3.1+/Zeo; expressed in transfected cells
T2 sequence (P80365 1-405): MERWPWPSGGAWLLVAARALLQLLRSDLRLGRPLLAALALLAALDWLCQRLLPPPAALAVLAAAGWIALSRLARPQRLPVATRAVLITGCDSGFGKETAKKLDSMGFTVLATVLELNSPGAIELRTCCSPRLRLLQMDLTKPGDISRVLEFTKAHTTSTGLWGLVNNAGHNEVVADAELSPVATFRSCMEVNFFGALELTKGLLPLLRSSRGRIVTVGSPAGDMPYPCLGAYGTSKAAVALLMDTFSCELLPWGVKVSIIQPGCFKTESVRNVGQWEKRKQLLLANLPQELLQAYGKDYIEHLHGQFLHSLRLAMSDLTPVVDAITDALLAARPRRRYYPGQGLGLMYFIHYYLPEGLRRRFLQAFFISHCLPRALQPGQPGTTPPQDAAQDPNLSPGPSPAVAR
Protocol: 1. Human 11β-HSD1-, Human 11β-HSD2- and Mouse 11β-HSD1-Gene Clonings and Establishment of Stably Expressing Cells
Human 11β-HSD1-, human 11β-HSD2-, and mouse 11β-HSD1-gene clonings were conducted using as a template a reverse transcription product of human-liver RNA, human-kidney RNA (CELL APPLICATIONS), and mouse-kidney RNA respectively, by means of PCR cloning with reference to nucleotide sequences of Genbank Accession Nos. NM_005525, NM_000196, and NM_008288. The obtained PCR products of about 0.9 kbp, 1.2 kbp, and 0.9 kbp were subcloned into an expression vector pcDNA3.1+/Zeo (Invitrogen).
Human 11β-HSD1- and human 11β-HSD2-expressing vectors were transfected into human kidney-derived cell line, HEK293 cells, using a transfection reagent, jet PEI (Funakoshi). Mouse 11β-HSD1 was transfected to Chinese hamster ovary-derived cell line, CHO-K1 cells. Selection was conducted with 200-400 μg/mL of zeocine (Invitrogen) to provide stably expressing-cell clones. The stably expressing cells were suspended in buffer solution A (20 mmol/L Tris-HCl, pH 7.4, 250 mmol/L sucrose, 1 mmol/L EGTA, 1 mmol/L EDTA, 1 mmol/L MgCl2), sonicated, and then stored at −80° C.
2. Assay of Enzyme Inhibitory Activity
An enzymatic reaction was conducted using a polystyrene 96-well plate. Each well was added with 1 μL of a test agent dissolved in DMSO and then diluted (0.003 to 3 mmol/L), and further added with 10 μL of cell lysate diluted to a concentration of 0.1 mg/mL to 0.4 mg/mL. Next, 90 μL of buffer solution A containing substrate (100 nmol/L cortisone or cortisol) and coenzyme (400 μmol/L NADPH or NAD+) was added and the mixture was incubated at 37° C. for 1 hour. The enzymatic reaction was stopped by treating at 95° C. for 3 minutes. Cortisol that was present in the reaction solution was determined by a competitive ELISA shown below.
Anti-rabbit IgG antibody (Chemi-con) diluted to 2 μg/mL with carbonate buffer solution (pH 9.6) was added in 100 μL each to a 96-well immuno plate (Nunc) and immobilized by an incubation at 4° C. overnight. 50 μL of enzymatic reaction solution was put onto the plates, and further, anti-cortisol antibody (Cosmo Bio) and HRP-labeled cortisol (Cosmo Bio), diluted with buffer solution B (25 mmol/L Tris-HCl pH 7.4, 137 mmol/L NaCl, 2.68 mmol/L KCl), were added in 50 μL respectively and incubated at 4° C. overnight. After washed three times with buffer solution B containing 0.05% Tween 20, the plates were allowed to develop color by adding 100 μL of color reagent, TMB (Moss). The color reaction was stopped by 25 μL of 1 mol/L sulfuric acid and the absorbance was determined at 450 nm with a microplate reader (Molecular Device, VersaMax).
The values of human 11β-HSD1, human 11β-HSD2, and mouse 11β-HSD1 activities were subtracted from 100, and the resultant values were regarded as the respective 11β-HSD inhibition rates of example compounds. […] The comparison of human 11β-HSD1 and human 11β-HSD2 inhibiting activities is shown in Table 1, and the comparison of human 11β-HSD1 and mouse 11β-HSD1 inhibiting activities is shown in Table 2.

mouse 11β-HSD1 = molecular target: T3, mouse 11β-HSD1 (Mus musculus, UniProt P50172); assay: Enzyme inhibitory activity, mouse 11β-HSD1 (lysate of stably expressing CHO-K1 cells, cortisol by competitive ELISA); conditions: Table 2; mouse 11β-HSD1, cell lysate, 37° C. for 1 hour; read-out: m HSD1 in vitro assay (IC50 uM)
T3 construct: The obtained PCR products of about 0.9 kbp, 1.2 kbp, and 0.9 kbp were subcloned into an expression vector pcDNA3.1+/Zeo; expressed in transfected cells
Summary of the method: as §1

T3 sequence (P50172 whole entry): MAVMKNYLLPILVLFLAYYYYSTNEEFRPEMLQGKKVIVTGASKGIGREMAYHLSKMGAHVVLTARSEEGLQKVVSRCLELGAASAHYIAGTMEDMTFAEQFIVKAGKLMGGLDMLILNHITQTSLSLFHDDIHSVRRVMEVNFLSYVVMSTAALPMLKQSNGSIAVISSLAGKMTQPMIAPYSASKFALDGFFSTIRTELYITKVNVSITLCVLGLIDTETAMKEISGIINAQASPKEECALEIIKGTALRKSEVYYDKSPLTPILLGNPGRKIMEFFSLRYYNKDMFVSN
T1 sequence (P28845 whole entry): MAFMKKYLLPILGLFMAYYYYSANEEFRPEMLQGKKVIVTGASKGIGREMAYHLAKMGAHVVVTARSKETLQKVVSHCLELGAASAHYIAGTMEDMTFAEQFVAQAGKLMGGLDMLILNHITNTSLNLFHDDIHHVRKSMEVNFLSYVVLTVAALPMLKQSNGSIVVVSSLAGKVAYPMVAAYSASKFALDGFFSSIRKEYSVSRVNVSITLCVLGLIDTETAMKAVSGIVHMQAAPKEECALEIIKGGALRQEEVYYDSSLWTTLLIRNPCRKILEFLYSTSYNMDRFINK

Row | Compound | IC50 (human 11β-HSD1) | IC50 (human 11β-HSD2) | IC50 (mouse 11β-HSD1)
1 | CCc1ccccc1CN1N(C2C3CC4CC(C3)CC2C4)C(=O)C1(C)C (stereo not shown) [Example 50, 1-(2-ethylbenzyl)-4,4-dimethyl-2-(adamantan-2-yl)-1,2-diazetidin-3-one] | 0.042 µM | 6.6 µM | 0.16 µM
2 | CC1(C)C(=O)N(C2C3CC4CC(C3)CC2C4)N1Cc1ccc(Cl)cc1Cl (stereo not shown) [Example 52, 1-(2,4-dichlorobenzyl)-4,4-dimethyl-2-(adamantan-2-yl)-1,2-diazetidin-3-one] | 0.078 µM | 9.5 µM | 0.16 µM
3 | CC1(C)C(=O)N(C2CCCCCCC2)N1Cc1cccc(Cl)c1Cl [Example 74, 2-cyclooctyl-1-(2,3-dichlorobenzyl)-4,4-dimethyl-1,2-diazetidin-3-one] | 0.046 µM | 3 to 30 µM | 0.13 µM
4 | CC1(C)C(=O)N(C2CCCCCCC2)N1Cc1ccc(F)cc1Cl [Example 76, 1-(2-chloro-4-fluorobenzyl)-2-cyclooctyl-4,4-dimethyl-1,2-diazetidin-3-one] | 0.031 µM | 4.8 µM | 0.14 µM
5 | Cc1ccc(C)c(C(=O)N2N(C3C4CC5CC(C4)CC3C5)C(=O)C2(C)C)c1 (stereo not shown) [Example 161, 1-[(2,5-dimethylphenyl)carbonyl]-4,4-dimethyl-2-(adamantan-2-yl)-1,2-diazetidin-3-one] | 0.5 µM | > 30 µM | 0.23 µM
6 | CC1(C)C(=O)N(C2C3CC4CC(C3)CC2C4)N1c1ccccc1[N+](=O)[O-] (stereo not shown) [Example 188, 4,4-dimethyl-1-(2-nitrophenyl)-2-(adamantan-2-yl)-1,2-diazetidin-3-one] | 0.082 µM | > 30 µM | 0.76 µM
7 | CC1(C)C(=O)N(C2C3CC4CC(C3)CC2C4)N1c1cccc2ccccc12 (stereo not shown) [Example 212, 4,4-dimethyl-1-(naphthalen-1-yl)-2-(adamantan-2-yl)-1,2-diazetidin-3-one] | 0.032 µM | 3 to 30 µM | 0.089 µM
8 | COCOc1ccccc1N1N(C2C3CC4CC(C3)CC2C4)C(=O)C1(C)C (stereo not shown) [Example 218, 1-[2-(methoxymethoxy)phenyl]-4,4-dimethyl-2-(adamantan-2-yl)-1,2-diazetidin-3-one] | 0.81 µM | > 30 µM | 0.57 µM
9 | COc1ccccc1N1N([C@H]2C3CC4CC2C[C@](Cl)(C4)C3)C(=O)C1(C)C [Example 250, trans-2-(5-chloroadamantan-2-yl)-1-(2-methoxyphenyl)-4,4-dimethyl-1,2-diazetidin-3-one] | 0.042 µM | > 30 µM | 0.13 µM
10 | CC1(C)C(=O)N(C2C3CC4CC(C3)CC2C4)N1/C=C/c1ccccc1 (stereo not shown) [Example 265, 4,4-dimethyl-1-[(E)-2-phenylethenyl]-2-(adamantan-2-yl)-1,2-diazetidin-3-one] | 0.036 µM | 19 µM | 

More lines, in order of falling IC50 (human 11β-HSD1), values ahead:

Row | IC50 (human 11β-HSD1) | IC50 (human 11β-HSD2) | IC50 (mouse 11β-HSD1) | Compound
11 | 0.031 µM | > 30 µM | 0.5 µM | CC1(C)C(=O)N(C2C3CC4CC(C3)CC2C4)N1Cc1ccc(F)cc1C(F)(F)F (stereo not shown) [Example 48, 1-[4-fluoro-2-(trifluoromethyl)benzyl]-4,4-dimethyl-2-(adamantan-2-yl)-1,2-diazetidin-3-one]
12 | 0.03 µM | 3 to 30 µM | 0.61 µM | CC1(C)C(=O)N([C@H]2C3CC4CC2C[C@](Cl)(C4)C3)N1c1cccc(Cl)c1Cl [Example 251, trans-2-(5-chloroadamantan-2-yl)-1-(2,3-dichlorophenyl)-4,4-dimethyl-1,2-diazetidin-3-one]
13 | 0.028 µM | 3 to 30 µM |  | CC1(C)C(=O)N([C@H]2C3CC4CC2C[C@@](O)(C4)C3)N1c1ccc2ccccc2c1 [Example 248, cis-2-(5-hydroxyadamantan-2-yl)-4,4-dimethyl-1-(naphthalen-2-yl)-1,2-diazetidin-3-one]
14 | 0.023 µM | 3.2 µM | 0.13 µM | CC1(C)C(=O)N(C2C3CC4CC(C3)CC2C4)N1Cc1cc(F)ccc1Cl (stereo not shown) [Example 41, 1-(2-chloro-5-fluorobenzyl)-4,4-dimethyl-2-(adamantan-2-yl)-1,2-diazetidin-3-one]
15 | 0.023 µM | 4.5 µM | 0.54 µM | CC1(C)C(=O)N(C2C3CC4CC(C3)CC2C4)N1c1ccc(O)cc1 (stereo not shown) [Example 215, 4,4-dimethyl-1-(4-hydroxyphenyl)-2-(adamantan-2-yl)-1,2-diazetidin-3-one]
16 | 0.023 µM | 3 to 30 µM | 0.29 µM | CC1(C)C(=O)N(C2CCCCCCC2)N1c1cccc(Cl)c1Cl [Example 221, 2-cyclooctyl-1-(2,3-dichlorophenyl)-4,4-dimethyl-1,2-diazetidin-3-one]
17 | 0.023 µM | 3 to 30 µM | 0.95 µM | CC1(C)C(=O)N([C@H]2C3CC4CC2C[C@](O)(C4)C3)N1c1ccccc1Cl [Example 227, trans-1-(2-chlorophenyl)-2-(5-hydroxyadamantan-2-yl)-4,4-dimethyl-1,2-diazetidin-3-one]
18 | 0.019 µM | 5.5 µM | 0.087 µM | CC1(C)C(=O)N(C2CCCCCCC2)N1c1cccc2ccccc12 [Example 222, 2-cyclooctyl-4,4-dimethyl-1-(naphthalen-1-yl)-1,2-diazetidin-3-one]
19 | 0.016 µM | 2 µM | 0.092 µM | CC1(C)C(=O)N(C2CCCCCCC2)N1Cc1cc(F)ccc1Cl [Example 77, 1-(2-chloro-5-fluorobenzyl)-2-cyclooctyl-4,4-dimethyl-1,2-diazetidin-3-one]
20 | 0.015 µM | 3 µM | 0.04 µM | CC1(C)C(=O)N(C2C3CC4CC(C3)CC2C4)N1Cc1ccccc1Br (stereo not shown) [Example 39, 1-(2-bromobenzyl)-4,4-dimethyl-2-(adamantan-2-yl)-1,2-diazetidin-3-one]
21 | 0.012 µM | 10 µM | 0.084 µM | CC1(C)C(=O)N(C2C3CC4CC(C3)CC2C4)N1Cc1ccccc1I (stereo not shown) [Example 40, 1-(2-iodobenzyl)-4,4-dimethyl-2-(adamantan-2-yl)-1,2-diazetidin-3-one]
22 | 0.0082 µM | 1.1 µM | 0.15 µM | CSc1ccccc1CN1N(C2C3CC4CC(C3)CC2C4)C(=O)C1(C)C (stereo not shown) [Example 60, 4,4-dimethyl-1-[2-(methylthio)benzyl]-2-(adamantan-2-yl)-1,2-diazetidin-3-one]
23 | 0.0061 µM | 3 to 30 µM | 0.44 µM | CC1(C)C(=O)N(C2C3CC4CC(C3)CC2C4)N1c1cccc(Cl)c1Cl (stereo not shown) [Example 206, 1-(2,3-dichlorophenyl)-4,4-dimethyl-2-(adamantan-2-yl)-1,2-diazetidin-3-one]
